This note sets out measurements from PMC7217877, “N-AS-triggered SPMs are direct regulators of microglia in a model of Alzheimer’s disease” (Nature Communications, 2020).

Positions count from the first letter of the chain named. Where “and” joins values, the source holds several entries; their conditions need not be identical. Equal values may be shown once.

The target of one test is T1, COX2 N181A (Homo sapiens, UniProt P35354, N181A).
T1 construct: His (N); made in house
T1 sequence (P35354 18-604 N181A): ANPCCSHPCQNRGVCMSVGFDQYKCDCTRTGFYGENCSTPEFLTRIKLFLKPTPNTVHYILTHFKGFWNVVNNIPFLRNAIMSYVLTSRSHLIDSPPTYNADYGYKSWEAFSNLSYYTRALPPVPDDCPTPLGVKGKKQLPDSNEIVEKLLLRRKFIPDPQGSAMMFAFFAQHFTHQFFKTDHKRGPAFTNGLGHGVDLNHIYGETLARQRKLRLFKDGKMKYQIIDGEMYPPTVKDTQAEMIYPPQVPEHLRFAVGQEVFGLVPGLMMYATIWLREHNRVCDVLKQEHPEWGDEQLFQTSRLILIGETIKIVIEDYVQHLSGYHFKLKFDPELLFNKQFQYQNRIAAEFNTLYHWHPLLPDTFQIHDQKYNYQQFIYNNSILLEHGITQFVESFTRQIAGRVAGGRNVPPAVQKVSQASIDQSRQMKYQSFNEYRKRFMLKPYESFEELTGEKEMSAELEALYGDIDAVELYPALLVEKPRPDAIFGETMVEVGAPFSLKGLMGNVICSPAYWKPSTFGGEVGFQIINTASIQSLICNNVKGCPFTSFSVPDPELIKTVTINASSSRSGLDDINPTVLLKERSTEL
The experiment in a line: in vitro [14C] acetylation assay of purified COX2. Format: biochemical. The note with it: replicates, listed as C14 N-AS. The source says:
(§1) Single point mutations in SphK1 (R56A, R57A, R24A, R185A, D178A, and F192A) and COX2 (S565A, N181A, T564A, and S567A) were generated using the In-Fusion Cloning Kits (Clontech) and ORF cDNA expression plasmids of human SphK1 and COX2 gene (Sino Biological Inc, HG15679-NH and HG12036-NH), according to the manufacturer’s instructions. The forward and reverse primers described in Supplementary Table 4. The SphK1 WT, SphK1 mutants, COX2 WT, and COX2 mutant plasmids were transformed in the One shot TOP 10 competent cell (Invitrogen). The bacteria were grown in Luria-Bertani (LB, Invitrogen) plates supplemented with 50 μg ml^−1 kanamycin (Sigma-Aldrich) at 37 °C. The bacterial cell pellets were resuspended in lysis buffer containing 20 mM sodium phosphate (GE Healthcare), 500 mM NaCl (GE Healthcare), 20 mM imidazole (pH 7.4) (GE Healthcare), 0.2 mg ml^−1 lysozyme (Sigma-Aldrich), 20 μg ml^−1 DNase I (Roche), 1 mM MgCl2 (Sigma-Aldrich), and 1 mM PMSF (Sigma-Aldrich) before being lysed by sonication and clarified by centrifugation at 15,493×g for 10 min. Proteins were purified from the soluble fraction using His-Spin Trap columns (GE Healthcare) and the binding and acetylation assays were performed.
(§2) Acetylation assays were performed according to previously described procedures with minor modifications. […] To confirm the N-AS-mediated COX2 acetylation, 10 μg COX2 (WT or mutants) was used incubated with [^14C] N-AS (2 μCi, ARC UK Ltd, ARC-1024) at 37 °C for 2 h. [^14C] aspirin (2 μCi, ARC UK Ltd, ARC-0473) was conducted as the positive control. The reactions were terminated by placing the reaction tubes in ice for 5 min. To evaluate in vivo neuronal and microglial COX2 acetylation, 10 μCi [^14C] N-AS was orally administrated to 9-months-old WT and APP/PS1 mice. After 1 h, neuron and microglia were isolated and sonicated in culture media. […] Acetylated COX2 proteins bound to the beads were analyzed using a Tri-Carb 3110TR liquid scintillation counter (Perkin-Elmer).

Test [1] addresses T2, COX2 S565A (Homo sapiens, UniProt P35354, S565A).
T2 construct: His (N); made in house
T2 sequence (P35354 18-604 S565A): T1 sequence (P35354 18-604 N181A) with A164N, S548A
The experiment in a line: in vitro [14C] acetylation assay of purified COX2. Type of test: biochemical. The note with it: replicates, listed as C14 N-AS.
Excerpt: as §1, §2

The target in another test is T3, COX2 S567A (Homo sapiens, UniProt P35354, S567A).
T3 construct: His (N); made in house
T3 sequence (P35354 18-604 S567A): T1 sequence (P35354 18-604 N181A) with A164N, S550A
Put plainly: in vitro [14C] acetylation assay of purified COX2. Format: biochemical. The following applies: replicates, listed as C14 N-AS.
Excerpt: as §1, §2

The target of test [2] is T2, COX2 S565A. Put plainly: filter binding assay of [14C] N-AS to COX2. The following applies: 0.2 uM, replicates.

On to `CCCCCCCCCCCCC/C=C/[C@@H](O)[C@H](CO)NC(C)=O` [N-AS, N-((2S,3R,E)-1,3-Dihydroxyoctadec-4-en-2-yl)acetamide], for which the “C14 radioactivity of COX2, acetylation assay (Fig 1h)” value was 141977 and 143404 and 142984 and 143554 and 143318 and 142968 at COX2 N181A; 117550 and 118051 and 117876 and 111509 and 116124 and 117620 at COX2 S565A [1]; 185354 and 188203 and 187860 and 187573 and 187463 and 187847 on COX2 S567A. Moreover, the “binding velocity (Vbinding)” value at COX2 S565A [2] was 0.187 nM/min and 0.075 nM/min and 0.292 nM/min.
